The target in test [1] is T1, HIV-1 integrase (Human immunodeficiency virus type 1 group M subtype B, UniProt P04585).
T1 construct: Expression and purification of the recombinant HIV-1 integrase in Escherichia coli; made in house; host or cells: Escherichia coli
As to the kind of experiment: Integrase catalytic assay, 3′-processing (3′-P), 21 bp duplex substrate. Type of test: biochemical. The following applies: for IC50: In vitro IC50 21 bp substrate 3′-P; for inhibition at 333 µM: drug concentration of 333 μM. The method, then: (§1) Recombinant HIV integrase and oligonucleotide substrates. Expression and purification of the recombinant HIV-1 integrase in Escherichia coli were performed according to (Leh et al., 2000; Marchand et al., 2001) with addition of 10% glycerol to all buffers. The preparation of the Q148C/SSS-mutant integrase will be described elsewhere (Johnson et al., 2005). The oligonucleotide substrates, except those used for the disulfide crosslinking (FIG. 5A), were purchased from Integrated DNA Technologies, Inc. (Coraville, Iowa) and purified by polyacrylamide gel. The single-stranded oligonucleotides were 5′-end labeled with [γ^32P]-ATP (Perkin Elmer, Wellesley, M A) and T4 polynucleotide kinase (New England BioLabs, Ipswich, M A). Unincorporated nucleotide was removed using mini Quick Spin Oligo columns (Roche Diagnostics, Indianapolis, Ind.). Substrates were obtained after annealing with complementary non-labeled oligonucleotides. The thiol-modified substrate (FIG. 5A) for disulfide crosslinking assay was synthesized as essentially described by W. Santos and G. Verdine (Department of Chemistry and Chemical Biology, Harvard University, Cambridge, Mass.) (They and Verdine, 2002).
(§2) Integrase catalytic assays. Reactions were performed in 10 μl with 300 nM of recombinant IN, 20 nM of the 5′-end [^32P]-labeled oligonucleotide substrates and inhibitors at the indicated concentrations. 10% DMSO was included in controls. Reactions were incubated for 40 min at 37° C. in a buffer containing a final concentration of 25 mM MOPS, pH 7.2, 25 mM NaCl, 14.3 mM β-mercaptoethanol and 7.5 mM of divalent cations (MgCl2 or MnCl2 as indicated). Reactions were stopped by addition of 20 μl loading dye (10 mM EDTA, 98% deionized formamide, 0.025% xylene cyanol and 0.025% bromophenol blue). Reactions were heated at 95° C. for 1 min before electrophoresis in 20% polyacrylamide-7 M urea gels. Gels were dried and reaction products were visualized and quantitated with a Molecular Dynamics PhosphorImager (Sunnyvale, Calif.). Densitometric analyses were performed using ImageQuant from the Molecular Dynamics software. The concentrations at which enzyme activity was reduced by 50% (IC50), was determined using “Prism” software (GraphPad Software, San Diego, Calif.) for nonlinear regression to fit dose-response data to logistic curve models.

For test [2], the target named is T1, HIV-1 integrase. In words: Integrase catalytic assay, strand transfer (ST), 21 bp duplex substrate. It counts as biochemical. The following applies: for inhibition activity, ST, 21 bp substrate: drug concentration of 333 μM; for inhibition at 333 µM: read-out: inhibition activity, ST, 21 bp substrate. The method, then:
as §1, §2

The target in test [3] is T1, HIV-1 integrase. As to the kind of experiment: Strand transfer assay with preprocessed (19/21) DNA substrate. Type of test: biochemical. The following applies: for IC50: In vitro IC50 Preprocessed substrate; for inhibition at 333 µM: drug concentration of 333 μM. The procedure: as §1, §2
In test [4] the target is T1, HIV-1 integrase. In words: Disintegration assay with Y-oligomer substrate. Type of test: biochemical. The following applies: for IC50: In vitro IC50 Disintegration; for inhibition activity, disintegration: drug concentration of 333 μM; for inhibition at 333 µM: read-out: inhibition activity, disintegration. The procedure: as §1, §2
Test [5] concerns the target T2, Q148C/SSS-mutant integrase (Human immunodeficiency virus type 1 group M subtype B, UniProt P04585, C1203S/C1212S/C1427S/Q1295C).
T2 construct: 10 μM recombinant Q148C/SSS-mutant integrase was incubated with 10 μM DNA substrate; made in house
In words: biochemical. The following applies: drug 1 mM; Mg2+ or Mn2+ (FIG. 5B). Type of test: binding, HIV-1.
Method: Briefly, 10 μM recombinant Q148C/SSS-mutant integrase was incubated with 10 μM DNA substrate (FIG. 5A) containing tethered thiols in the presence of 20 mM Tris, pH 7.4, 10% glycerol and 7.5 mM of divalent cations (MgCl2 or MnCl2 as indicated) for 20 min at 37° C. Reactions were stopped by the addition of 20 mM methylmethanethiosulfonate (capping reagent). Non-reducing gel loading buffer (100 mM Tris-HCl, pH 6.8, 4% SDS, 0.2% bromophenol blue, 20% glycerol) was added and samples were heated at 95° C. before loading onto 16% tricine gels (Invitrogen, Carlsbad, Calif.). Gels were stained with Microwave Blue according to manufacturer's recommendations (Protiga, Frederick, Md.).
DNA (20 nM) containing a [5′-^32P]-label on one strand and a thiol-modified cytosine on the other strand was added and reactions were capped with methylmethanethiosulfonate at 1 minute. Following capping, non-reducing gel loading buffer (100 mM Tris-HCl, pH 6.8, 4% SDS, 0.2% bromophenol blue, 20% glycerol) was added and samples were directly loaded on 16% tricine gels (Invitrogen, Carlsbad, Calif.). Gels were dried and reaction products were quantitated using the same way as described above.

The mark [6] stands for this setting: read-out: inhibition activity, 3′-P, 21 bp substrate, Mg2+.
The mark [7] stands for this setting: read-out: inhibition activity, 3′-P, 21 bp substrate, Mn2+.
The mark [8] stands for this setting: In vitro IC50 21 bp substrate ST, Mg2+.
Where [9] appears, read: In vitro IC50 21 bp substrate ST, Mn2+.
Setting [10] is: Mn2+ as cofactor, U5 LTR DNA substrate.
Where [11] appears, read: read-out: inhibition activity, preprocessed substrate, Mg2+.
Setting [12] is: read-out: inhibition activity, preprocessed substrate, Mn2+.

By IC50 is commonly meant the concentration that inhibits the measured activity by half. Low readings indicate greater potency in that assay, high ones weaker potency in that assay.

Consider `CC(C)c1cccc(=O)c(O)c1` [NSC 18804, β-thujaplicin], for which the concentration for half-maximal inhibition (IC50) in test [1] (Mg2+), in test [1] (Mn2+), in test [2] (setting [8]), in test [2] (setting [9]), in test [3] (Mg2+) and in test [3] (Mn2+) was above 333 µM throughout. Also, the IC50 in test [4] (Mg2+) and in test [4] (Mn2+) was above 333 µM throughout. The inhibition at 333 µM in test [1] (setting [6]) was 20 to 40%; in test [1] (setting [7]), 20 to 40%; in test [2] it was 5 to 20%; in test [3] (setting [11]), 5 to 20%; in test [3] (setting [12]), 5 to 20%; in test [4], below 5%. The “potency against HIV-1 integrase relative to the minimal tropolone core” value in test [2] (setting [10]) is “failed to increase potency”. Moreover, in test [2] (Mn2+), the “inhibition activity, ST, 21 bp substrate” value is 2 (5% < inhibition activity < 20%). Further, in test [4] (Mn2+), the “inhibition activity, disintegration” value was 1 (inhibition activity ≦ 5%). The “inhibition of integrase-DNA disulfide-crosslinking (in words)” value in test [5] is “lack of inhibition”.
In the case of `CC(C)c1ccccc(=O)c1O` [NSC 18805, α-thujaplicin], the IC50 in test [1] (Mg2+), in test [1] (Mn2+), in test [2] (setting [8]), in test [2] (setting [9]), in test [3] (Mg2+) and in test [3] (Mn2+) was above 333 µM in each case. For the same compound, the IC50 in test [4] (Mg2+) and in test [4] (Mn2+) was above 333 µM in each case. Besides, the inhibition at 333 µM is 5 to 20% in test [1] (setting [6]); 5 to 20% in test [1] (setting [7]); below 5% in test [2]; below 5% in test [3] (setting [11]); below 5% in test [3] (setting [12]); below 5% in test [4]. The “potency against HIV-1 integrase relative to the minimal tropolone core” value in test [2] (setting [10]) is given as “failed to increase potency”. The “inhibition activity, ST, 21 bp substrate” value in test [2] (Mn2+) was 1 (inhibition activity ≦ 5%). The “inhibition activity, disintegration” value in test [4] (Mn2+) is recorded as 1 (inhibition activity ≦ 5%).
For `CC(C)c1ccc(O)c(=O)cc1` [NSC 43338, γ-thujaplicin], the half-inhibitory concentration (IC50) in test [1] (Mg2+), in test [1] (Mn2+), in test [2] (setting [8]), in test [2] (setting [9]), in test [3] (Mg2+) and in test [3] (Mn2+) was above 333 µM in each case. The IC50 in test [4] (Mg2+) and in test [4] (Mn2+) was above 333 µM each time. Moreover, the inhibition at 333 µM in test [1] (setting [6]), in test [1] (setting [7]), in test [2], in test [3] (setting [11]), in test [3] (setting [12]) and in test [4] was below 5% throughout. In addition, in test [2] (setting [10]), the “potency against HIV-1 integrase relative to the minimal tropolone core” value is on record as “failed to increase potency”. The “inhibition activity, ST, 21 bp substrate” value in test [2] (Mn2+) was 1 (inhibition activity ≦ 5%). The “inhibition activity, disintegration” value in test [4] (Mn2+) is recorded as 1 (inhibition activity ≦ 5%).
As to `CC(C)=CCc1ccc(=O)c(O)cc1C(C)C` [NSC 43339, nootkatin], the IC50 in test [1] (Mg2+), in test [1] (Mn2+), in test [2] (setting [8]), in test [2] (setting [9]), in test [3] (Mg2+) and in test [3] (Mn2+) was above 333 µM each time. For the same compound, the IC50 in test [4] (Mg2+) and in test [4] (Mn2+) was above 333 µM each time. In addition, the inhibition at 333 µM in test [1] (setting [6]) is 5 to 20%; in test [1] (setting [7]), 5 to 20%; in test [2], 20 to 40%; in test [3] (setting [11]), 5 to 20%; in test [3] (setting [12]) it was 20 to 40%; in test [4] it was below 5%. Besides, the “potency against HIV-1 integrase relative to the minimal tropolone core” value in test [2] (setting [10]) is “failed to increase potency”. In addition, the “inhibition activity, ST, 21 bp substrate” value in test [2] (Mn2+) is on record as 3 (20% < inhibition activity < 40% at drug concentration of 333 μM). Besides, the “inhibition activity, disintegration” value in test [4] (Mn2+) is given as 1 (inhibition activity ≦ 5%).
As for `O=c1cccccc1O` [NSC 89303, tropolone], the IC50 in test [1] (Mg2+) was above 333 µM; in test [1] (Mn2+), above 333 µM; in test [2] (IC50, inhibition of HIV-1 integrase (first screen), Mn2+ as cofactor, U5 LTR DNA substrate, 3′-P or ST not specified), above 333 µM; in test [2] (setting [8]), above 333 µM; in test [2] (setting [9]), above 333 µM; in test [3] (Mg2+), above 333 µM. Besides, the IC50 in test [3] (Mn2+), in test [4] (Mg2+) and in test [4] (Mn2+) was above 333 µM throughout. Also, the inhibition at 333 µM in test [1] (setting [6]) was below 5%; in test [1] (setting [7]), 5 to 20%; in test [2] it was 20 to 40%; in test [3] (setting [11]), 5 to 20%; in test [3] (setting [12]), 5 to 20%; in test [4] it was below 5%. The “inhibition activity, ST, 21 bp substrate” value in test [2] (Mn2+) is 3 (20% < inhibition activity < 40% at drug concentration of 333 μM). For the same compound, the “inhibition activity, disintegration” value in test [4] (Mn2+) is 1 (inhibition activity ≦ 5%).
Regarding `C=C(C)C1CCc2c(c(C)cc(O)c(=O)c2O)C1` (stereo not drawn) [NSC 310618, manicol], the IC50 is 182 ± 42.5 µM in test [1] (Mg2+); 20.2 µM in test [1] (Mn2+); 71.1 ± 3.8 µM in test [2] (setting [8]); 11.7 ± 5.2 µM in test [2] (setting [9]); above 333 µM in test [3] (Mg2+); 25.8 µM in test [3] (Mn2+). The IC50 in test [4] (Mg2+) was above 333 µM; in test [4] (Mn2+) it was 98.3 µM. In addition, the inhibition at 333 µM was 20 to 40% in test [3] (setting [11]) and 5 to 20% in test [4].

For the origin of these results see patent US20100152301A1, “Treatment of Viral Infections” (GOVERNMENT OF THE US, AS REPRESENTED BY THE SECRETARY, …, priority 2005, published 2010).
